Assay results published in paper PMC5513091, “A novel Alzheimer’s disease drug candidate targeting inflammation and fatty acid metabolism” (Alzheimer's Research & Therapy, 2017).

Experiments:
Aβ1–42 = Aβ1–42 (Homo sapiens, UniProt P05067); assay: Thioflavin S Aβ1–42 aggregation assay; assay type: biochemical; conditions: data not shown
CYP 2D6 = CYP 2D6 (Homo sapiens, UniProt P10635); assay: CYP inhibition; assay type: in vitro ADME
HT22 = assay: In vitro ischemia; assay type: cell-based; conditions: Mus musculus, HT-22, read-out: Half-maximal effective concentration, In vitro ischemia
Description: The various phenotypic screening assays were conducted as previously described. Briefly, HT-22, primary cortical neurons, or MC65 was plated and exposed to the different environmental stresses. Cells were treated with varying concentrations of CAD-31, and half-maximal effective concentration (EC50) was determined on the basis of cell viability.
• An assay that mimics the dramatic loss of neurotrophic support in the old brain is the trophic factor withdrawal assay. Primary embryonic day 18 cortical cells are plated at low density in serum-free medium. At low density, the cells die within 2 days; they can be rescued by combinations of neurotrophic growth factors, but not by one alone ([19] and unpublished data). […] BDNF is a molecule that is also involved in promoting memory and neurogenesis and is reduced in the brain with age and in AD, as well as in other neurological disorders. BDNF has long been considered a drug target for AD [23]. […] A reduction in GSH is a common denominator of old age and essentially all chronic central nervous system (CNS) diseases. J147 and CAD-31 both effectively reduce oxidative stress, with EC50 of 6 nM and 20 nM, respectively. • CAD-31 also prevents loss of energy metabolism that leads to neuron cell death in an in vitro ischemia model. […]

Chain of Aβ1–42 (P05067 672-713 limits assumed): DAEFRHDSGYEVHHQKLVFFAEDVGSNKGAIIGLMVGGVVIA
Chain of CYP 2D6 (P10635 whole entry): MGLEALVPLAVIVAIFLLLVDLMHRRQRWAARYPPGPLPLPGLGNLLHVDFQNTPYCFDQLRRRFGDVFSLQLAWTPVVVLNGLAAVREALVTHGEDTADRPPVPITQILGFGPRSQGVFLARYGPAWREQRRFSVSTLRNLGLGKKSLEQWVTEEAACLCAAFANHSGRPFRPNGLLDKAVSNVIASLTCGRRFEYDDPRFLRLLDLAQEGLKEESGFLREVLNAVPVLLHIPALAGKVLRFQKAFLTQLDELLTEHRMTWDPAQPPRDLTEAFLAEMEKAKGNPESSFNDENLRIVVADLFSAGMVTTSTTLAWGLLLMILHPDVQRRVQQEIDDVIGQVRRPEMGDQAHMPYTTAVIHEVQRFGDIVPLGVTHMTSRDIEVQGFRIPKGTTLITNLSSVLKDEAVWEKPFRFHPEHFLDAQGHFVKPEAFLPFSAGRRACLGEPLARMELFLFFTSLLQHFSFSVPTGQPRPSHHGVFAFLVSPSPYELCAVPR

In the case of Cc1ccc(N(/N=C/c2cccc(OC(F)(F)F)c2)C(=O)C(F)(F)F)c(C)c1 [CAD-31], the “binding to and direct inhibition of Aβ1–42 aggregation” value (Aβ1–42) is reported as “Neither J147 nor CAD-31 binds to and directly inhibits Aβ1–42 aggregation”, the EC50 at 10 µM (CYP 2D6) is reported as over 10000 nM and the EC50 (HT22) is reported as 47 nM.
